Assay [1] can be described thus: Ability to catalyze Fenton reaction, luminol reaction observed by eye. As to conditions: reaction product solution added to 100 ml luminol solution (1 g/L luminol, 4 g/L sodium hydroxide, 0.3% hydrogen peroxide). The source says:
With respect to the reaction products of the samples, which were confirmed to have iron reducing effects in Example 1, and iron, the fact that the reaction products have abilities to catalyze the Fenton reaction was examined by a luminol reaction.
It should be noted that the luminol reaction means a luminescence reaction caused by oxidizing luminol by generation of hydroxyl radicals.
Small amounts of the aqueous solutions containing the reaction products prepared in Example 1 were each added to 100 ml of a luminol solution (1 g/L luminol, 4 g/L sodium hydroxide, 0.3% hydrogen peroxide), and the presence or absence of luminescence was observed.

A short description of assay [2]: Luminol reaction, amount of luminescence (hydroxyl radicals generated) measured with AB-2270 Luminescencer Octa. As to the method: In the step of preparing the reaction products of the samples and iron, the ability to catalyze the Fenton reaction was examined with different mixing ratios of the samples to iron.
The above-mentioned samples were each mixed with iron (III) chloride (1 mM FeCl3) at different mixing ratios as shown in FIG. 2 to prepare reaction products in the same manner as in Example 1.
(§1) Then, for each of the aqueous solutions containing the reaction products, the amount of luminescence (amount of hydroxyl radicals generated) provided by the luminol reaction was measured using the AB-2270 Luminescencer Octa to determine the ability of the reaction products to catalyze the Fenton reaction. […]
The above-mentioned samples were added to different concentrations of iron (III) chloride (0.02, 0.1, 0.2, 1, 5, and 10 mM) at the optimum mixing ratios determined in Example 3 (ascorbic acid: 0.5 mM, squeezed grape juice: 40 mg/L in terms of total polyphenols, chaff vinegar stock solution: 50 g/L, with respect to 1 mM FeCl3) to prepare reaction products in the same manner as in Example 1.
as §1

The next assay has as its system Escherichia coli. The settings on record: 10 mM hydrogen peroxide, 1.0x10^6 cfu/mL, 10 minutes of treatment, TTC medium plate.

Consider `O=C1O[C@H]([C@@H](O)CO)C(O)=C1O` [Sample 1, ascorbic acid], for which the “presence or absence of luminescence” value in assay [1] is “blue fluorescence was observed”. Also, in assay [2] (reaction products with iron at optimum mixing ratios and concentrations (Example 5)), the “ability to catalyze the Fenton reaction” value is “very high”. The “optimum mixing concentration for ability to catalyze the Fenton reaction” value in assay [2] (with respect to 1 mM FeCl3) is “about 0.5 mM”.
In the case of `OO` [hydrogen peroxide], the “sterilization effect (survival of Escherichia coli)” value in the assay on Escherichia coli is given as “a large amount of Escherichia coli survived”.

(Values after patent US9162219B2, “Fenton reaction catalyst produced using reducing organic substance as raw material” (INCORPORATED ADMINISTRATIVE AGENCY, NATIONAL AGRICULTURE …, priority 2011, dated 2015).)
